Values after ≈ are worked out from the molar mass of the structure shown. “Also recorded” adds a separate entry of the source. Where two headings read alike, the source gives them in different places.
Experiments:
SIBO Bacteria = settings: cited from earlier work
S. agalactiae ATCC 13813 = assay: Time-kill assay; assay type: cell-based, Streptococcus agalactiae; settings: 2×, 4×, 8× MIC; 2, 6, 24 hr
S. pyogenes = assay: Spontaneous mutation frequency and mutation prevention concentration (MPC); assay type: cell-based; settings: S. pyogenes ATCC 49399
Description: (§1) As used herein, “spontaneous mutation frequency” refers to the rate at which mutations arise in a bacterium that can lead to resistance to develop to an antimicrobial agent. “Mutation prevention concentration” or “MPC” refers to the lowest concentration of antimicrobial agent above which the selective proliferation of resistant mutants is expected to occur only rarely.

B. vulgatus = assay: as above; assay type: cell-based; settings: B. vulgatus ATCC 8482
Description: as §1

S. pneumonia = assay: as above; assay type: cell-based; settings: S. pneumoniae ATCC 49619
Description: as §1

Escherichia coli = assay: as above; assay type: cell-based
Description: as §1

S. agalactiae = assay: as above; assay type: cell-based; settings: S. agalactiae ATCC 13813
Description: as §1

[1] = tested on: Streptococcus spp. (S. pneumoniae ATCC 49619, S. pyogenes ATCC 49399, S. agalactiae ATCC 13813); assay: Agar dilution MIC (spontaneous mutation study; strain in conditions); assay type: cell-based
[2] = tested on: E. coli, Streptococcus spp., and Bacteroides spp. isolates; assay type: cell-based
Protocol: (§2) Initial values of the MIC were determined by agar dilution in accordance with guidelines from the Clinical and Laboratory Standards Institute (CLSI; (1) “Methods for Dilution Antimicrobial Susceptibility Tests for Bacteria That Grow Aerobically; Approved Standard; 11th ed.,” CLSI standard M07, 2018; (2) “Methods for Antimicrobial Susceptibility Testing of Anaerobic Bacteria; Approved Standard—Eighth Edition,” CLSI document M11-A8, 2012.).
(§3) If there were no colonies on the antibiotic selection plates, the spontaneous mutation frequency was reported as less than the frequency observed with one colony to indicate that the spontaneous mutation frequency was less than the limit of detection (one CFU). […] The mutation prevention concentration (MPC) was reported as the lowest concentration for which no mutants were selected.

Bacteroides fragilis = assay: Agar dilution MIC, 30 clinical isolates; assay type: cell-based
B. vulgatus ATCC 8482 = assay: Broth microdilution MIC (time-kill study); assay type: cell-based, Bacteroides vulgatus
[3] = tested on: E. coli (ATCC 25922, ATCC 35218, MMX 1312); assay: Spontaneous mutation frequency assay; assay type: cell-based, Escherichia coli
Protocol: as §2
The agar plates were prepared by mixing a ratio of 1.0 mL of concentrated drug to 49.0 mL of the appropriate molten (47° C.) agar; the drug-supplemented agar was mixed, poured into 15-by-150 mm petri dishes and allowed to solidify and dry at room temperature prior to inoculation. […] Each plate was allowed to cool at room temperature for at least 1 hr.
The isolates were streaked onto the appropriate agar medium and incubated for 20 hr (aerobes) or 48 hr (Bacteroides under anaerobic conditions). Using a sterile swab, several well-isolated colonies were removed and resuspended in sterile saline at a heavy cell density. Each plate was inoculated with 0.5 mL of the cell suspension (each test concentration was inoculated in duplicate). The target inoculum for each spontaneous mutation plate was 10^9-10 CFU. In addition, a portion of the inoculum from each isolate was enumerated by making dilutions, spreading on agar and counting colonies.
Once the inoculum was absorbed into the agar, the plates were incubated at 35° C. Aerobes were examined at 24 and 48 hr, and resulting colonies were counted. Bacteroides were incubated anaerobically for 48-72 hr in the anaerobe chamber and colonies were counted.
Colony counts from plates used to enumerate the initial inoculum density and from the resulting spontaneous mutation frequency test plates were determined. The inoculum size was calculated as CFU inoculated per plate. The spontaneous mutation frequency was calculated using the counts from duplicate spontaneous mutation assay test plates as follows:
as §3

Prevotella spp. = assay: Agar dilution MIC, 30 clinical isolates; assay type: cell-based
[4] = E. coli ATCC 25922, selection 4X MIC, 0.06 μg/mL
[5] = E. coli ATCC 35218, selection 4X MIC, 0.06 μg/mL
[6] = E. coli MMX 1312, selection 4X MIC, 0.06 μg/mL, TNTC = too numerous to count
[7] = 30 Bacteroides fragilis clinical isolates
[8] = 30 Prevotella spp. clinical isolates

C[C@@H](O)[C@H]1C(=O)N2C(C(=O)O)=C(S[C@@H]3CN[C@H](C(=O)N(C)C)C3)[C@H](C)[C@H]12 [meropenem]
activity against SIBO organisms (SIBO Bacteria): active against SIBO organisms | time-kill kinetics outcome (bactericidal = ≥3 log reduction in CFU per mL) (S. agalactiae ATCC 13813): bactericidal effect at 24 hr at 8×MIC | MPC (S. pyogenes): 0.03 µg/mL | Average Count (S. pyogenes; selection 4X MIC, 0.03 μg/mL): 0 CFU | Count 1 (S. pyogenes; selection 4X MIC, 0.03 μg/mL): 0 CFU | Count 2 (S. pyogenes; selection 4X MIC, 0.03 μg/mL): 0 CFU | Spontaneous Mutation Frequency (S. pyogenes; selection 4X MIC, 0.03 μg/mL): ≤1.81 × 10^−10 | Average Count (S. pyogenes; selection 8X MIC, 0.06 μg/mL): 0 CFU | Count 1 (S. pyogenes; selection 8X MIC, 0.06 μg/mL): 0 CFU | Count 2 (S. pyogenes; selection 8X MIC, 0.06 μg/mL): 0 CFU | Spontaneous Mutation Frequency (S. pyogenes; selection 8X MIC, 0.06 μg/mL): ≤1.81 × 10^−10 | MPC (B. vulgatus): 0.5 µg/mL | Average Count (B. vulgatus; selection 4X MIC, 0.5 μg/mL): 0 CFU | Count 1 (B. vulgatus; selection 4X MIC, 0.5 μg/mL): 0 CFU | Count 2 (B. vulgatus; selection 4X MIC, 0.5 μg/mL): 0 CFU | Spontaneous Mutation Frequency (B. vulgatus; selection 4X MIC, 0.5 μg/mL): ≤1.73 × 10^−10 | Average Count (B. vulgatus; selection 8X MIC, 1 μg/mL): 0 CFU | Count 1 (B. vulgatus; selection 8X MIC, 1 μg/mL): 0 CFU | Count 2 (B. vulgatus; selection 8X MIC, 1 μg/mL): 0 CFU | Spontaneous Mutation Frequency (B. vulgatus; selection 8X MIC, 1 μg/mL): ≤1.73 × 10^−10 | MPC (S. pneumonia): 0.25 µg/mL | Average Count (S. pneumonia; selection 8X MIC, 0.5 μg/mL): 0 CFU | Count 1 (S. pneumonia; selection 8X MIC, 0.5 μg/mL): 0 CFU | Count 2 (S. pneumonia; selection 8X MIC, 0.5 μg/mL): 0 CFU | Spontaneous Mutation Frequency (S. pneumonia; selection 8X MIC, 0.5 μg/mL): ≤9.52 × 10^−10 | Average Count (Escherichia coli): 0 CFU | Count 1 (Escherichia coli): 0 CFU | Count 2 (Escherichia coli): 0 CFU | MPC (Escherichia coli; E. coli ATCC 25922): 0.06 µg/mL | Average Count (Escherichia coli; [4]): 0 CFU | Count 1 (Escherichia coli; [4]): 0 CFU | Count 2 (Escherichia coli; [4]): 0 CFU | Spontaneous Mutation Frequency (Escherichia coli; [4]): ≤7.41 × 10^−9 | MPC (Escherichia coli; E. coli ATCC 35218): 0.06 µg/mL | Average Count (Escherichia coli; [5]): 0 CFU | Count 1 (Escherichia coli; [5]): 0 CFU | Count 2 (Escherichia coli; [5]): 0 CFU | Spontaneous Mutation Frequency (Escherichia coli; [5]): ≤5.13 × 10^−9 | Average Count (Escherichia coli; [6]): TNTC | Count 1 (Escherichia coli; [6]): TNTC | Count 2 (Escherichia coli; [6]): TNTC | MPC (S. agalactiae): 0.12 µg/mL | MIC ([1]; Streptococcus agalactiae, S. agalactiae ATCC 13813, read-out: Agar MIC): 0.03 µg/mL (≈ 0.0782 µM) | MIC ([1]; Streptococcus pneumoniae, S. pneumoniae ATCC 49619, read-out: Agar MIC): 0.06 µg/mL (≈ 0.156 µM) | MIC ([1]; Streptococcus pyogenes, S. pyogenes ATCC 49399, read-out: Agar MIC): 0.008 µg/mL (≈ 0.0209 µM) | MIC ([1]; over evaluated Streptococcus spp. (range stated jointly with other groups), read-out: MIC values (agar dilution)): 0.008 to 0.12 µg/mL (≈ 0.0209 to 0.313 µM) | propensity for spontaneous resistance ([2]; SIBO pathogens in vitro): little propensity for resistance to develop spontaneously | MPC values ([2]; across the evaluated isolates): equivalent to 4× the MIC | isolates with intermediate resistance (Bacteroides fragilis): Twenty | relative activity among drugs tested (Bacteroides fragilis): meropenem and rifaximin had similar activity | % I (Bacteroides fragilis; [7]): 20% | % S (Bacteroides fragilis; [7]): 80% | MIC50 (Bacteroides fragilis; [7]): 0.25 µg/mL (≈ 0.652 µM) | MIC90 (Bacteroides fragilis; [7]): >8 µg/mL | MIC50 (Bacteroides fragilis; Bacteroides fragilis, read-out: MIC50): 0.25 µg/mL (≈ 0.652 µM) | MIC90 (Bacteroides fragilis; Bacteroides fragilis, read-out: MIC90): > 8 µg/mL | Mode (Bacteroides fragilis; modal MIC, 30 Bacteroides fragilis clinical isolates): 0.25 µg/mL | MIC (B. vulgatus ATCC 8482; B. vulgatus ATCC 8482): 0.12 µg/mL (≈ 0.313 µM) | MIC (B. vulgatus ATCC 8482; Phocaeicola vulgatus, ATCC8482, broth microdilution, read-out: MIC): 0.12 µg/mL (≈ 0.313 µM) | colonies on selection plates ([3]; E. coli MMX 1312): too numerous to count | mutation rate ([3]; E. coli MMX 1312): indeterminate | colonies on selection plates ([3]; E. coli MMX 1312, listed as Meropenem): only E. coli MMX 1312 demonstrated growth | Spontaneous Mutation Frequency ([3]; selection at 4× and 8× MIC, meropenem/ceftriaxone: isolates other than MMX 1312): ≤ 7.41×10^−9 | MIC range (Prevotella spp.): ≤0.008 to 0.3 µg/mL | isolates susceptible (Prevotella spp.): All were susceptible | relative activity among drugs tested (Prevotella spp.): most active drug tested; also recorded: most active agent | % S (Prevotella spp.; [8]): 100% | MIC50 (Prevotella spp.; [8]): 0.06 µg/mL (≈ 0.156 µM) | MIC90 (Prevotella spp.; [8]): 0.12 µg/mL (≈ 0.313 µM) | MIC range (Prevotella spp.; [8]): ≤0.008 to 0.3 µg/mL | MIC50 (Prevotella spp.; Prevotella, read-out: MIC50): 0.06 µg/mL (≈ 0.156 µM) | MIC90 (Prevotella spp.; Prevotella, read-out: MIC90): 0.12 µg/mL (≈ 0.313 µM) | Mode (Prevotella spp.; modal MIC, 30 Prevotella spp. clinical isolates): 0.06 µg/mL
